Data as given in patent US20250136586A1, “Substituted 7-(Pyrimidin-4-yl)Quinolin-4(1H)-One Compounds as Cyclin Dependent Kinase Inhibitors” (BeiGene, Ltd., priority 2022, published 2025).

What was measured:
CDK4/Cyclin D1 = CDK4/Cyclin D1 (Homo sapiens (Human), UniProt P11802); experiment: TR-FRET kinase inhibition assay, CDK4/Cyclin D1; assay type: biochemical; conditions: 1 mM ATP, 0.15 μM Rb (Ser780)-biotin substrate, read-out: CDK4D1 IC50
In short: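 Kinase was preincubated with compound for 60 min at room temperature, then reacted with ATP and Rb (Ser780)-biotin substrate for 120 min. IC50 came from a four-parameter logistic fit.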

CDK6/Cyclin D3 = CDK6/Cyclin D3 (Homo sapiens (Human), UniProt Q00534); experiment: TR-FRET kinase inhibition assay, CDK6/Cyclin D3; assay type: biochemical; conditions: 1 mM ATP, 0.15 μM Rb (Ser780)-biotin substrate, read-out: CDK6D3 IC50
CDK6/Cyclin D3, sequence (Q00534 whole entry): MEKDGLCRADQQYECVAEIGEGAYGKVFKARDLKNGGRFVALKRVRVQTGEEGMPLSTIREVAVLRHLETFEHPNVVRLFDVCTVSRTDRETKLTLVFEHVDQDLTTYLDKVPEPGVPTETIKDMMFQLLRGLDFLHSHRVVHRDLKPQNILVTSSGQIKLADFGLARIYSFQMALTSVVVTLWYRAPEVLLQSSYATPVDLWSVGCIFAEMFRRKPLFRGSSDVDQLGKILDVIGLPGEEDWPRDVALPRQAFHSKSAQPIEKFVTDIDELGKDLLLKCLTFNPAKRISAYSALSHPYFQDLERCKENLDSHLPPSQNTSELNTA
CDK6/Cyclin D3, sequence (P30281 whole entry partner): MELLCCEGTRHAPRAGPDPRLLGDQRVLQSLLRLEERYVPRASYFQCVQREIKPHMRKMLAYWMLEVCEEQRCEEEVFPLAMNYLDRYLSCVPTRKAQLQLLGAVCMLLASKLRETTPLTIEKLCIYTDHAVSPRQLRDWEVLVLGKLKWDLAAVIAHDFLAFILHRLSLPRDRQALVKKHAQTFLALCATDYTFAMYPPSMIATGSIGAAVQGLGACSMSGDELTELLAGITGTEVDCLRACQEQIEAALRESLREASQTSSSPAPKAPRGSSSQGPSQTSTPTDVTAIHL
In short: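 Kinase preincubated 60 min at room temperature with 0–10 μM compound; reaction started with 1 mM ATP and 0.15 μM Rb (Ser780)-biotin, run 120 min at room temperature in HEPES pH 7.0, 50 mM MgCl2. pRb detected by TR-FRET (665/620 nm ratio); IC50 from four-parameter logistic fit.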

CDK4/Cyclin D1, sequence (P11802 whole entry): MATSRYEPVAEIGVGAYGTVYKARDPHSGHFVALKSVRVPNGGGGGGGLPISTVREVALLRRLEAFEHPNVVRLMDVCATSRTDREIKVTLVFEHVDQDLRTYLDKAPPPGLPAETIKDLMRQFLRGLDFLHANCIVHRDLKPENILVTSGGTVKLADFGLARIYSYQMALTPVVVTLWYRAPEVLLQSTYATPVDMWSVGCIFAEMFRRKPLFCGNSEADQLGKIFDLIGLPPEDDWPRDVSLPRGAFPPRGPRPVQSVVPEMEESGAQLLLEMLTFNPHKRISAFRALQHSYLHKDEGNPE
CDK4/Cyclin D1, sequence (P24385 whole entry partner): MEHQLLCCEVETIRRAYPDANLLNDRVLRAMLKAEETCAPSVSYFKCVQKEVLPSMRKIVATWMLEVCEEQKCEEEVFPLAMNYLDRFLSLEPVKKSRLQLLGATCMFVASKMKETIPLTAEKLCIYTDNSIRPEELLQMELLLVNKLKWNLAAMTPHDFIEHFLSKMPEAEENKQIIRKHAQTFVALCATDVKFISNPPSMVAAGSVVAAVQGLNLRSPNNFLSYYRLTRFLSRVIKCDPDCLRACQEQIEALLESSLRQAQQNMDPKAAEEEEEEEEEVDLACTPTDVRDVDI

Row | SMILES | IC50 (CDK4/Cyclin D1) [nM] | IC50 (CDK6/Cyclin D3) [nM]
1 | CC(C)n1c(CN2CCS(=O)(=O)CC2)cc(=O)c2ccc(-c3nc(N[C@@H]4CCOC[C@H]4O)ncc3F)cc21 [Example 83, 2-((1,1-dioxidothiomorpholino)methyl)-7-(5-fluoro-2-(((3S,4R)-3-hydroxytetrahydro-2H-pyran-4-yl)amino)pyrimidin-4-yl)-1-isopropylquinolin-4(1H)-one] | 32 | 928
2 | CC(C)n1c(CN2CC[C@@H](F)[C@H](O)C2)cc(=O)c2ccc(-c3nc(N[C@@H]4CCOC[C@H]4O)ncc3F)cc21 [Example 84, 7-(5-fluoro-2-(((3S,4R)-3-hydroxytetrahydro-2H-pyran-4-yl)amino)pyrimidin-4-yl)-2-(((3R,4R)-4-fluoro-3-hydroxypiperidin-1-yl)methyl)-1-isopropylquinolin-4(1H)-one] | 6.8 | 170
3 | CC(C)n1c(CN2CC[C@H](F)[C@@H](O)C2)cc(=O)c2ccc(-c3nc(N[C@@H]4CCOC[C@H]4O)ncc3F)cc21 [Example 85, 7-(5-fluoro-2-(((3S,4R)-3-hydroxytetrahydro-2H-pyran-4-yl)amino)pyrimidin-4-yl)-2-(((3S,4S)-4-fluoro-3-hydroxypiperidin-1-yl)methyl)-1-isopropylquinolin-4(1H)-one] | 19 | 494
4 | CC(C)n1c(CN2CC[C@H](O)C2)cc(=O)c2ccc(-c3nc(N[C@@H]4CCOC[C@H]4O)ncc3F)cc21 [Example 86, 7-(5-fluoro-2-(((3S,4R)-3-hydroxytetrahydro-2H-pyran-4-yl)amino)pyrimidin-4-yl)-2-(((S)-3-hydroxypyrrolidin-1-yl)methyl)-1-isopropylquinolin-4(1H)-one] | 21 | 777
5 | CC(C)n1c(CN2CC[C@@H](O)C2)cc(=O)c2ccc(-c3nc(N[C@@H]4CCOC[C@H]4O)ncc3F)cc21 [Example 87, 7-(5-fluoro-2-(((3S,4R)-3-hydroxytetrahydro-2H-pyran-4-yl)amino)pyrimidin-4-yl)-2-(((R)-3-hydroxypyrrolidin-1-yl)methyl)-1-isopropylquinolin-4(1H)-one] | 22 | 682
6 | CC(C)n1c(CN2CCC[C@@H](C#N)C2)cc(=O)c2ccc(-c3nc(N[C@@H]4CCOC[C@H]4O)ncc3F)cc21 [Example 88, (R)-1-((7-(5-fluoro-2-(((3S,4R)-3-hydroxytetrahydro-2H-pyran-4-yl)amino)pyrimidin-4-yl)-1-isopropyl-4-oxo-1,4-dihydroquinolin-2-yl)methyl)piperidine-3-carbonitrile] | 4.1 | 406
7 | CC(C)n1c(CN2CCC[C@H](C#N)C2)cc(=O)c2ccc(-c3nc(N[C@@H]4CCOC[C@H]4O)ncc3F)cc21 [Example 89, (S)-1-((7-(5-fluoro-2-(((3S,4R)-3-hydroxytetrahydro-2H-pyran-4-yl)amino)pyrimidin-4-yl)-1-isopropyl-4-oxo-1,4-dihydroquinolin-2-yl)methyl)piperidine-3-carbonitrile] | 3.8 | 407
8 | CC(C)n1c(CN2C3CCCC2CC(O)C3)cc(=O)c2ccc(-c3nc(N[C@@H]4CCOC[C@H]4O)ncc3F)cc21 (stereo partly drawn) [Example 90, 7-(5-fluoro-2-(((3S,4R)-3-hydroxytetrahydro-2H-pyran-4-yl)amino)pyrimidin-4-yl)-2-(((1R,3R,5S)-3-hydroxy-9-azabicyclo[3.3.1]nonan-9-yl)methyl)-1-isopropylquinolin-4(1H)-one] | 5.7 | 251
9 | CC(C)n1c(CN2CCC3(CCCO3)C2)cc(=O)c2ccc(-c3nc(N[C@@H]4CCOC[C@H]4O)ncc3F)cc21 (stereo partly drawn) [Example 91, 2-((1-oxa-7-azaspiro[4.4]nonan-7-yl)methyl)-7-(5-fluoro-2-(((3S,4R)-3-hydroxytetrahydro-2H-pyran-4-yl)amino)pyrimidin-4-yl)-1-isopropylquinolin-4(1H)-one] | 24 | 1060
10 | Cc1c(CN2CC[C@@H](F)C2)n(C(C)C)c2cc(-c3nc(N[C@@H]4CCOC[C@H]4O)ncc3F)ccc2c1=O [Example 92, 7-(5-fluoro-2-(((3S,4R)-3-hydroxytetrahydro-2H-pyran-4-yl)amino)pyrimidin-4-yl)-2-(((R)-3-fluoropyrrolidin-1-yl)methyl)-1-isopropyl-3-methylquinolin-4(1H)-one] | 4.1 | 131
11 | CC(C)n1c(CN2[C@@H](C)COC[C@@H]2C)cc(=O)c2ccc(-c3nc(N[C@@H]4CCOC[C@H]4O)ncc3F)cc21 [Example 93, 2-(((3S,5S)-3,5-dimethylmorpholino)methyl)-7-(5-fluoro-2-(((3S,4R)-3-hydroxytetrahydro-2H-pyran-4-yl)amino)pyrimidin-4-yl)-1-isopropylquinolin-4(1H)-one] | 8.7 | 296
12 | CC(C)n1c(CNc2ccccc2)cc(=O)c2ccc(-c3nc(N[C@@H]4CCOC[C@H]4O)ncc3F)cc21 [Example 94, 7-(5-fluoro-2-(((3S,4R)-3-hydroxytetrahydro-2H-pyran-4-yl)amino)pyrimidin-4-yl)-1-isopropyl-2-((phenylamino)methyl)quinolin-4(1H)-one] | 11 | 165
13 | CC(C)n1c(CNc2cccc(Cl)c2)cc(=O)c2ccc(-c3nc(N[C@@H]4CCOC[C@H]4O)ncc3F)cc21 [Example 95, 2-(((3-chlorophenyl)amino)methyl)-7-(5-fluoro-2-(((3S,4R)-3-hydroxytetrahydro-2H-pyran-4-yl)amino)pyrimidin-4-yl)-1-isopropylquinolin-4(1H)-one] | 13 | 208
14 | CC(C)n1c(CNc2ccc(F)cc2)cc(=O)c2ccc(-c3nc(N[C@@H]4CCOC[C@H]4O)ncc3F)cc21 [Example 96, 7-(5-fluoro-2-(((3S,4R)-3-hydroxytetrahydro-2H-pyran-4-yl)amino)pyrimidin-4-yl)-2-(((4-fluorophenyl)amino)methyl)-1-isopropylquinolin-4(1H)-one] | 21 | 273
15 | CC(C)n1c(CN2CCC(C)(C)CC2)cc(=O)c2ccc(-c3nc(N[C@@H]4CCOC[C@H]4O)ncc3F)cc21 [Example 97, 2-((4,4-dimethylpiperidin-1-yl)methyl)-7-(5-fluoro-2-(((3S,4R)-3-hydroxytetrahydro-2H-pyran-4-yl)amino)pyrimidin-4-yl)-1-isopropylquinolin-4(1H)-one] | 64 | 2050
16 | CC(C)n1c(CN2CCC[C@@H](F)C2)cc(=O)c2ccc(-c3nc(N[C@@H]4CCOC[C@H]4O)ncc3F)cc21 [Example 98, 7-(5-fluoro-2-(((3S,4R)-3-hydroxytetrahydro-2H-pyran-4-yl)amino)pyrimidin-4-yl)-2-(((R)-3-fluoropiperidin-1-yl)methyl)-1-isopropylquinolin-4(1H)-one] | 8.6 | 370
17 | CC(C)n1c(CN2CCC(F)CC2)cc(=O)c2ccc(-c3nc(N[C@@H]4CCOC[C@H]4O)ncc3F)cc21 [Example 99, 7-(5-fluoro-2-(((3S,4R)-3-hydroxytetrahydro-2H-pyran-4-yl)amino)pyrimidin-4-yl)-2-((4-fluoropiperidin-1-yl)methyl)-1-isopropylquinolin-4(1H)-one] | 17 | 561
18 | CC(C)n1c(CN2CCCC2)cc(=O)c2ccc(-c3nc(N[C@@H]4CCOC[C@H]4O)ncc3F)cc21 [Example 100, 7-(5-fluoro-2-(((3S,4R)-3-hydroxytetrahydro-2H-pyran-4-yl)amino)pyrimidin-4-yl)-1-isopropyl-2-(pyrrolidin-1-ylmethyl)quinolin-4(1H)-one] | 19 | 760
